Legend:
Assay in all cases: radiometric filter-binding kinase assay
ABL1 (human) = ABL1 (human) (UniProt P00519)
CDK9 CCNT1 (human) = CDK9 CCNT1 (human) (UniProt P50750+O60563)
CSNK1G2 (human) = CSNK1G2 (human) (UniProt P78368)
DDR2 (human) = DDR2 (human) (UniProt Q16832)
EIF2AK3 (human) = EIF2AK3 (human) (UniProt Q9NZJ5)
IRAK1 (human) = IRAK1 (human) (UniProt P51617)
MAP4K3 (human) = MAP4K3 (human) (UniProt Q8IVH8)
MAP4K5 (human) = MAP4K5 (human) (UniProt Q9Y4K4)
MAPK7 (human) = MAPK7 (human) (UniProt Q13164)
Sequence of MAPK7 (human) (Q13164 whole entry, looked up): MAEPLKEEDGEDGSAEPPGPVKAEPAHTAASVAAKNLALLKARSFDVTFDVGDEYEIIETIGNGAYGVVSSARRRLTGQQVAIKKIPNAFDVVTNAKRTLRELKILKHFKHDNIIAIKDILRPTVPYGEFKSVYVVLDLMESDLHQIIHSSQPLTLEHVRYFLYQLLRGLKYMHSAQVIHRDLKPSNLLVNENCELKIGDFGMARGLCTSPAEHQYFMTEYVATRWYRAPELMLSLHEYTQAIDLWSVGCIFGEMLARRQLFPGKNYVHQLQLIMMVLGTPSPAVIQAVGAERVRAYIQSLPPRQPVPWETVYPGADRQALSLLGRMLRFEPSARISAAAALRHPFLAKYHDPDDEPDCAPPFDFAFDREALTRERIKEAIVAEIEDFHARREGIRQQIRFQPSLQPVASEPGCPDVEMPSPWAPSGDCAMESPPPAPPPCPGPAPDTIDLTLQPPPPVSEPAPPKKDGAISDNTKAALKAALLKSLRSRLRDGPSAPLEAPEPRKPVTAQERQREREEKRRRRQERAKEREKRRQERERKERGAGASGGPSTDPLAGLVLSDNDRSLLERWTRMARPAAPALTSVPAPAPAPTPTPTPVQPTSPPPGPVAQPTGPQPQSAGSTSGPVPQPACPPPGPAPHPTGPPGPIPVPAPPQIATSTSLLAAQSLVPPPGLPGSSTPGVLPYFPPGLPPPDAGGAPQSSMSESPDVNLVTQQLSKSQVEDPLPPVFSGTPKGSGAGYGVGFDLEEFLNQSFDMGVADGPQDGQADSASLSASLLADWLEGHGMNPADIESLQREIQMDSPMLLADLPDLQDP

MYLK (human) = MYLK (human) (UniProt Q15746)
[1] = system: OXSR1 (human), O95747 [T185E]
PDGFRA (human) = PDGFRA (human) (UniProt P16234)
[2] = target: PRKAA1 PRKAB2 PRKAG1 (human) (UniProt O43741+Q13131+P54619)
PRKCG (human) = PRKCG (human) (UniProt P05129)
PTK6 (human) = PTK6 (human) (UniProt Q13882)
SIK2 (human) = SIK2 (human) (UniProt Q9H0K1)
SIK3 (human) = SIK3 (human) (UniProt Q9Y2K2)
Sequence of SIK3 (human) (Q9Y2K2 whole entry, looked up): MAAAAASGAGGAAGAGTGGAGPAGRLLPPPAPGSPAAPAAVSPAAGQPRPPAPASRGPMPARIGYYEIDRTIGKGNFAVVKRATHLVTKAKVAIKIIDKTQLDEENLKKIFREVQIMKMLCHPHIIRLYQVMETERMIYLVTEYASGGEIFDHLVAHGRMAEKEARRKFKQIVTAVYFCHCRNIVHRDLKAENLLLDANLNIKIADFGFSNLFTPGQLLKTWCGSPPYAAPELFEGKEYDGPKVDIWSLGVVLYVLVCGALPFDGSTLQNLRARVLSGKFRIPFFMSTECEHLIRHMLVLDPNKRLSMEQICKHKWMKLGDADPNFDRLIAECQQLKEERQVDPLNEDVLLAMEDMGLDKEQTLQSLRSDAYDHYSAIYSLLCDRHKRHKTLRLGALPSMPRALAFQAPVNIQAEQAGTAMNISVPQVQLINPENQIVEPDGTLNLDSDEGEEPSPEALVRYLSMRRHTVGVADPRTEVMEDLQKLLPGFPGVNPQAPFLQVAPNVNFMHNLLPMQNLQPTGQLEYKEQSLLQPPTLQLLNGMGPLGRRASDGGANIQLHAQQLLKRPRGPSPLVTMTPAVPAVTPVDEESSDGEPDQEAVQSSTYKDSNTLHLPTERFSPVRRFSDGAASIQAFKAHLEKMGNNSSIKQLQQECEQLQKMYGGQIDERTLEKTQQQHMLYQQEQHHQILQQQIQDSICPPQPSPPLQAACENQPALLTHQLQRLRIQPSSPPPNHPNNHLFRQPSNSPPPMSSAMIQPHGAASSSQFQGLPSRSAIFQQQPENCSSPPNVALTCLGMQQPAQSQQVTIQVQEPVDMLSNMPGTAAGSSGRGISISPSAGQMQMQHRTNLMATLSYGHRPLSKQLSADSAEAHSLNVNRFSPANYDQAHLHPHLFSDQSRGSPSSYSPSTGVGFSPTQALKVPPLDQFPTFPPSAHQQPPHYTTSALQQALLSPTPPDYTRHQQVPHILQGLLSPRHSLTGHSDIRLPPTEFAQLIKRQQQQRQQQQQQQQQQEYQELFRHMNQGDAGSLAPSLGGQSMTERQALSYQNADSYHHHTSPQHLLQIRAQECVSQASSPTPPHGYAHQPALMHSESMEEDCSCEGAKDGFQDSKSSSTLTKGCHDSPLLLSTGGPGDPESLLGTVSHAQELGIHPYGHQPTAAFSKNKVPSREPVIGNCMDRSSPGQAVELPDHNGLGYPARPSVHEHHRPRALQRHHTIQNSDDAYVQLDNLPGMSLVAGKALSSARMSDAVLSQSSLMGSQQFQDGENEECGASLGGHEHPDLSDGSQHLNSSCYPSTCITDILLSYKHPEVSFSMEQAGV

STK16 (human) = STK16 (human) (UniProt O75716)
Sequence of STK16 (human) (O75716 whole entry, looked up): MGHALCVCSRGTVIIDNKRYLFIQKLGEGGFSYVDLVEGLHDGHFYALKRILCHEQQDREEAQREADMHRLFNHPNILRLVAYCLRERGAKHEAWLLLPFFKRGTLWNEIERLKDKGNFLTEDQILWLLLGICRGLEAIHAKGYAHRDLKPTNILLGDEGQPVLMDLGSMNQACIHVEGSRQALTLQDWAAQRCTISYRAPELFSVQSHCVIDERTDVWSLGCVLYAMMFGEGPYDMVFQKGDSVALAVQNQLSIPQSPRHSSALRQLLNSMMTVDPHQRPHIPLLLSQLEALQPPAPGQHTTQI

STK24 (human) = STK24 (human) (UniProt Q9Y6E0)
STK33 (human) = STK33 (human) (UniProt Q9BYT3)
TEK (human) = TEK (human) (UniProt Q02763)
TESK1 (human) = TESK1 (human) (UniProt Q15569)
[3] = system: TGFBR1 (human), P36897 [T204D]
Sequence of TGFBR1 (human), P36897 [T204D] (P36897 whole entry T204D, looked up): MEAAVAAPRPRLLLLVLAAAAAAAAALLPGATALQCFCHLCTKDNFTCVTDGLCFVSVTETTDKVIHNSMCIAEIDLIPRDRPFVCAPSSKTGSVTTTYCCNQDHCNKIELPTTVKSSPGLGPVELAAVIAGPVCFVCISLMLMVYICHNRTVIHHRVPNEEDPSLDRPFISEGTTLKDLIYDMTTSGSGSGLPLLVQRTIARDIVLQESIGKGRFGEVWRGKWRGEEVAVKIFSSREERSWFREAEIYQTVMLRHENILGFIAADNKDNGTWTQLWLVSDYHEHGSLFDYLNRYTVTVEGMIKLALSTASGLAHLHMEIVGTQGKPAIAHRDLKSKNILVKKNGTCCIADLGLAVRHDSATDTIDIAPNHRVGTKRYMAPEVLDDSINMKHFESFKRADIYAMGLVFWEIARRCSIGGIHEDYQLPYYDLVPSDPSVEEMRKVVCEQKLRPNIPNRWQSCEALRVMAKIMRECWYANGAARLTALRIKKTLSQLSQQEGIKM

TLK1 (human) = TLK1 (human) (UniProt Q9UKI8)
TSSK1B (human) = TSSK1B (human) (UniProt Q9BXA7)
TTBK1 (human) = TTBK1 (human) (UniProt Q5TCY1)
Sequence of TTBK1 (human) (Q5TCY1 whole entry, looked up): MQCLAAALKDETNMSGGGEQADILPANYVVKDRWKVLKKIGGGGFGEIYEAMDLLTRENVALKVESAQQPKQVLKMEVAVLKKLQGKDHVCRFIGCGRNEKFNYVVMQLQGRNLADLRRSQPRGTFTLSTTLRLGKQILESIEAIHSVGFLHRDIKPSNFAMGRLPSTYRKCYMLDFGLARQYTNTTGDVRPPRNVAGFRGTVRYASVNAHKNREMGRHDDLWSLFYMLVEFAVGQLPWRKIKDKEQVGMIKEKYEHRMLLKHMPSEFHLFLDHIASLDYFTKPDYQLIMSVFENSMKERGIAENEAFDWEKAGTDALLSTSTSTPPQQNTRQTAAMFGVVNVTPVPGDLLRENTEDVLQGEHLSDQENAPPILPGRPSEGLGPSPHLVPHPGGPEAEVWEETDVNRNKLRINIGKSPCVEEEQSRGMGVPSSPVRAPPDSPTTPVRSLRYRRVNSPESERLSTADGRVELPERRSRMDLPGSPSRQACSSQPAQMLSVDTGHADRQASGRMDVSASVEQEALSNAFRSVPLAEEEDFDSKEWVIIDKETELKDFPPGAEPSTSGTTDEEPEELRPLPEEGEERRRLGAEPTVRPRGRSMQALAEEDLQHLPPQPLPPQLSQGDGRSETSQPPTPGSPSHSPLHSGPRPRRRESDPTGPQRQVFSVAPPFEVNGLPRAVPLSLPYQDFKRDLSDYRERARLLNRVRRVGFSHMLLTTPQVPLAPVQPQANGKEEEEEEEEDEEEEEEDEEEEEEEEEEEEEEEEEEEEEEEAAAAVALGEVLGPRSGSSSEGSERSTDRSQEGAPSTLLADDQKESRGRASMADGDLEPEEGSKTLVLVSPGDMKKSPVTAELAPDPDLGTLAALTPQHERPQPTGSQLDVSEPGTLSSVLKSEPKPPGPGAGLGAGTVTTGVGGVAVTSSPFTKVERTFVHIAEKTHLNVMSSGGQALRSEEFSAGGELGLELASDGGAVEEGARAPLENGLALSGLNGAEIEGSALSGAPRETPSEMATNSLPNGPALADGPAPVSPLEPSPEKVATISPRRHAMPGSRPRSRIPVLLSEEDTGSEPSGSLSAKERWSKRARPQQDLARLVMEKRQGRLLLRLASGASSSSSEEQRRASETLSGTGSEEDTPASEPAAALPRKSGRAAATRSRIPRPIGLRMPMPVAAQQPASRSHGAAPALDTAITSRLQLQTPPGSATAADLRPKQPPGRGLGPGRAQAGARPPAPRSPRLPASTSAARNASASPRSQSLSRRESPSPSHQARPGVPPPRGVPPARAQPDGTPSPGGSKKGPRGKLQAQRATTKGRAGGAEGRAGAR

TTBK2 (human) = TTBK2 (human) (UniProt Q6IQ55)
ULK1 (human) = ULK1 (human) (UniProt O75385)
ULK2 (human) = ULK2 (human) (UniProt Q8IYT8)
WNK1 (human) = WNK1 (human) (UniProt Q9H4A3)
ZAP70 (human) = ZAP70 (human) (UniProt P43403)
Sequence of ZAP70 (human) (P43403 whole entry, looked up): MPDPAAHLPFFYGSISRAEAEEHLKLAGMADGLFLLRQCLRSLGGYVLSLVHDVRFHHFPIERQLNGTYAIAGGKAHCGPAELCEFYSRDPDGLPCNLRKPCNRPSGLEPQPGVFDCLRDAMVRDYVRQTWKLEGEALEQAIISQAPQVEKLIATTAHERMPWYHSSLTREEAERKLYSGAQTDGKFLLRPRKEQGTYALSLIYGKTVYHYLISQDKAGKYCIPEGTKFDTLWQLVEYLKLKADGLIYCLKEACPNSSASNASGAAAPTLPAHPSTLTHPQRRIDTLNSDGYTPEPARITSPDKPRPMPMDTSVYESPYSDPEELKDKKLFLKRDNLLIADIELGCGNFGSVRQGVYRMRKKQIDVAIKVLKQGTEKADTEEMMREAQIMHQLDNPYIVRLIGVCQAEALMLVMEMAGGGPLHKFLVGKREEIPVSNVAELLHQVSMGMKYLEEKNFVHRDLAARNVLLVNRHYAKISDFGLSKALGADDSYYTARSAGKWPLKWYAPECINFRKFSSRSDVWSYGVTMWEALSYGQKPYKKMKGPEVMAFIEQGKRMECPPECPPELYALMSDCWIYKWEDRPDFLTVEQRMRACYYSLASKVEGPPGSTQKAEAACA

AURKC (human) = AURKC (human) (UniProt Q9UQB9); details: compound 50.0 µM
NEK7 (human) = NEK7 (human) (UniProt Q8TDX7)

CCNc1nc(Nc2cc(F)c(C(=O)N3CCOCC3)cc2OC)ncc1C(F)(F)F
residual activity (ABL1 (human); compound 1.0 µM): 102% | residual activity (ABL1 (human); compound 10.0 µM): 106% | residual activity (CDK9 CCNT1 (human); compound 1.0 µM): 96% | residual activity (CDK9 CCNT1 (human); compound 10.0 µM): 90% | residual activity (CSNK1G2 (human); compound 1.0 µM): 91% | residual activity (CSNK1G2 (human); compound 10.0 µM): 90% | residual activity (DDR2 (human); compound 1.0 µM): 97% | residual activity (DDR2 (human); compound 10.0 µM): 98% | residual activity (EIF2AK3 (human); compound 1.0 µM): 99% | residual activity (EIF2AK3 (human); compound 10.0 µM): 80% | residual activity (IRAK1 (human); compound 1.0 µM): 100% | residual activity (IRAK1 (human); compound 10.0 µM): 93% | residual activity (MAP4K3 (human); compound 1.0 µM): 69% | residual activity (MAP4K3 (human); compound 10.0 µM): 21% | residual activity (MAP4K5 (human); compound 1.0 µM): 109% | residual activity (MAP4K5 (human); compound 10.0 µM): 90% | residual activity (MAPK7 (human); compound 1.0 µM): 65% | residual activity (MAPK7 (human); compound 10.0 µM): 32% | residual activity (MYLK (human); compound 1.0 µM): 31% | residual activity (MYLK (human); compound 10.0 µM): 6% | residual activity ([1]; compound 1.0 µM): 99% | residual activity ([1]; compound 10.0 µM): 54% | residual activity (PDGFRA (human); compound 1.0 µM): 91% | residual activity (PDGFRA (human); compound 10.0 µM): 61% | residual activity ([2]; compound 1.0 µM): 71% | residual activity ([2]; compound 10.0 µM): 29% | residual activity (PRKCG (human); compound 1.0 µM): 108% | residual activity (PRKCG (human); compound 10.0 µM): 95% | residual activity (PTK6 (human); compound 1.0 µM): 57% | residual activity (PTK6 (human); compound 10.0 µM): 15% | residual activity (SIK2 (human); compound 1.0 µM): 66% | residual activity (SIK2 (human); compound 10.0 µM): 21% | residual activity (SIK3 (human); compound 1.0 µM): 110% | residual activity (SIK3 (human); compound 10.0 µM): 88% | residual activity (STK16 (human); compound 1.0 µM): 97% | residual activity (STK16 (human); compound 10.0 µM): 96% | residual activity (STK24 (human); compound 1.0 µM): 97% | residual activity (STK24 (human); compound 10.0 µM): 81% | residual activity (STK33 (human); compound 1.0 µM): 39% | residual activity (STK33 (human); compound 10.0 µM): 22% | residual activity (TEK (human); compound 1.0 µM): 100% | residual activity (TEK (human); compound 10.0 µM): 85% | residual activity (TESK1 (human); compound 1.0 µM): 104% | residual activity (TESK1 (human); compound 10.0 µM): 98% | residual activity ([3]; compound 1.0 µM): 110% | residual activity ([3]; compound 10.0 µM): 102% | residual activity (TLK1 (human); compound 1.0 µM): 104% | residual activity (TLK1 (human); compound 10.0 µM): 101% | residual activity (TSSK1B (human); compound 1.0 µM): 12% | residual activity (TSSK1B (human); compound 10.0 µM): 3% | residual activity (TTBK1 (human); compound 1.0 µM): 100% | residual activity (TTBK1 (human); compound 10.0 µM): 84% | residual activity (TTBK2 (human); compound 1.0 µM): 95% | residual activity (TTBK2 (human); compound 10.0 µM): 74% | residual activity (ULK1 (human); compound 1.0 µM): 98% | residual activity (ULK1 (human); compound 10.0 µM): 47% | residual activity (ULK2 (human); compound 1.0 µM): 92% | residual activity (ULK2 (human); compound 10.0 µM): 61% | residual activity (WNK1 (human); compound 1.0 µM): 103% | residual activity (WNK1 (human); compound 10.0 µM): 104% | residual activity (ZAP70 (human); compound 1.0 µM): 102% | residual activity (ZAP70 (human); compound 10.0 µM): 79%

N#Cc1c(O)c2c(-c3ccc(-c4ccccc4O)cc3)csc2[nH]c1=O
residual activity (AURKC (human)): 30% | residual activity (MYLK (human); compound 10.0 µM): 76% | residual activity (MYLK (human); compound 50.0 µM): 39% | residual activity (MYLK (human); compound 100.0 µM): 20% | residual activity (NEK7 (human); compound 50.0 µM): 102%

CNC(=O)C1[C@H]2O[C@@](C)([C@@H]1N)n1c3ccccc3c3c4c(c5c6ccccc6n2c5c31)C(=O)NC4 (stereo partly specified)
residual activity (ABL1 (human); compound 0.01 µM): 98% | residual activity (ABL1 (human); compound 0.1 µM): 82% | residual activity (ABL1 (human); compound 1.0 µM): 37% | residual activity (CDK9 CCNT1 (human); compound 0.01 µM): 61% | residual activity (CDK9 CCNT1 (human); compound 0.1 µM): 17% | residual activity (CDK9 CCNT1 (human); compound 1.0 µM): 15% | residual activity (CSNK1G2 (human); compound 0.01 µM): 106% | residual activity (CSNK1G2 (human); compound 0.1 µM): 97% | residual activity (CSNK1G2 (human); compound 1.0 µM): 86% | residual activity (DDR2 (human); compound 0.1 µM): 8% | residual activity (DDR2 (human); compound 1.0 µM): 3% | residual activity (EIF2AK3 (human); compound 0.01 µM): 62% | residual activity (EIF2AK3 (human); compound 0.1 µM): 59% | residual activity (EIF2AK3 (human); compound 1.0 µM): 36% | residual activity (IRAK1 (human); compound 0.01 µM): 15% | residual activity (IRAK1 (human); compound 0.1 µM): 2% | residual activity (IRAK1 (human); compound 1.0 µM): 3% | residual activity (MAP4K3 (human); compound 0.01 µM): 3% | residual activity (MAP4K3 (human); compound 0.1 µM): 2% | residual activity (MAP4K3 (human); compound 1.0 µM): 1% | residual activity (MAP4K5 (human); compound 0.01 µM): 10% | residual activity (MAP4K5 (human); compound 0.1 µM): 7% | residual activity (MAP4K5 (human); compound 1.0 µM): 4% | residual activity (MAPK7 (human); compound 0.01 µM): 66% | residual activity (MAPK7 (human); compound 0.1 µM): 24% | residual activity (MAPK7 (human); compound 1.0 µM): 12% | residual activity (MYLK (human); compound 0.01 µM): 48% | residual activity (MYLK (human); compound 0.1 µM): 4% | residual activity (MYLK (human); compound 1.0 µM): 1% | residual activity ([1]; compound 0.01 µM): 75% | residual activity ([1]; compound 0.1 µM): 23% | residual activity ([1]; compound 1.0 µM): 7% | residual activity (PDGFRA (human); compound 0.01 µM): 54% | residual activity (PDGFRA (human); compound 0.1 µM): 8% | residual activity (PDGFRA (human); compound 1.0 µM): 2% | residual activity ([2]; compound 0.01 µM): 4% | residual activity ([2]; compound 0.1 µM): 3% | residual activity ([2]; compound 1.0 µM): 1% | residual activity (PRKCG (human); compound 0.01 µM): 95% | residual activity (PRKCG (human); compound 0.1 µM): 51% | residual activity (PRKCG (human); compound 1.0 µM): 13% | residual activity (PTK6 (human); compound 0.01 µM): 28% | residual activity (PTK6 (human); compound 0.1 µM): 16% | residual activity (PTK6 (human); compound 1.0 µM): 4% | residual activity (SIK2 (human); compound 0.01 µM): 4% | residual activity (SIK2 (human); compound 0.1 µM): 0% | residual activity (SIK2 (human); compound 1.0 µM): 1% | residual activity (SIK3 (human); compound 0.01 µM): 31% | residual activity (SIK3 (human); compound 0.1 µM): 7% | residual activity (SIK3 (human); compound 1.0 µM): 2% | residual activity (STK16 (human); compound 0.01 µM): 102% | residual activity (STK16 (human); compound 0.1 µM): 85% | residual activity (STK16 (human); compound 1.0 µM): 69% | residual activity (STK24 (human); compound 0.01 µM): 97% | residual activity (STK24 (human); compound 0.1 µM): 50% | residual activity (STK24 (human); compound 1.0 µM): 6% | residual activity (STK33 (human); compound 0.01 µM): 44% | residual activity (STK33 (human); compound 0.1 µM): 27% | residual activity (STK33 (human); compound 1.0 µM): 23% | residual activity (TEK (human); compound 0.01 µM): 59% | residual activity (TEK (human); compound 0.1 µM): 41% | residual activity (TEK (human); compound 1.0 µM): 20% | residual activity (TESK1 (human); compound 0.01 µM): 76% | residual activity (TESK1 (human); compound 0.1 µM): 19% | residual activity (TESK1 (human); compound 1.0 µM): 2% | residual activity ([3]; compound 0.01 µM): 96% | residual activity ([3]; compound 0.1 µM): 74% | residual activity ([3]; compound 1.0 µM): 17% | residual activity (TLK1 (human); compound 0.01 µM): 93% | residual activity (TLK1 (human); compound 0.1 µM): 39% | residual activity (TLK1 (human); compound 1.0 µM): 6% | residual activity (TSSK1B (human); compound 0.01 µM): 13% | residual activity (TSSK1B (human); compound 0.1 µM): 5% | residual activity (TSSK1B (human); compound 1.0 µM): 4% | residual activity (TTBK1 (human); compound 0.01 µM): 101% | residual activity (TTBK1 (human); compound 0.1 µM): 108% | residual activity (TTBK1 (human); compound 1.0 µM): 99% | residual activity (TTBK2 (human); compound 0.01 µM): 107% | residual activity (TTBK2 (human); compound 0.1 µM): 102% | residual activity (TTBK2 (human); compound 1.0 µM): 90% | residual activity (ULK1 (human); compound 0.01 µM): 102% | residual activity (ULK1 (human); compound 0.1 µM): 43% | residual activity (ULK1 (human); compound 1.0 µM): 11% | residual activity (ULK2 (human); compound 0.01 µM): 30% | residual activity (ULK2 (human); compound 0.1 µM): 5% | residual activity (ULK2 (human); compound 1.0 µM): 1% | residual activity (WNK1 (human); compound 0.1 µM): 91% | residual activity (WNK1 (human); compound 1.0 µM): 86% | residual activity (ZAP70 (human); compound 0.01 µM): 83% | residual activity (ZAP70 (human); compound 0.1 µM): 16% | residual activity (ZAP70 (human); compound 1.0 µM): 2%

CCCC(CCC)C(=O)O
residual activity (MYLK (human); compound 1.0 µM): 98% | residual activity (MYLK (human); compound 50.0 µM): 96% | residual activity (NEK7 (human); compound 1.0 µM): 99%
